Laboratory results as given in PMC9719539, “Single-molecule characterization of subtype-specific β1 integrin mechanics” (Nature Communications, 2022).

Legend:
[1] = test system: BJ-5ta cells; assay: Percentage of spread cells / cell spreading on TGT surfaces; type: cell-based, human; details: for Spread cells on TGT, 12pN: Ttol 12pN, SE in own column, n = 3 independent experiments; for Spread cells on TGT, 12pN / Spread cells on TGT, 23pN / Spread cells on TGT, 33pN / Spread cells on TGT, 43pN / Spread cells on TGT, 54pN: mean, given as fraction; for Spread cells on TGT, 23pN: Ttol 23pN; for Spread cells on TGT, 23pN / Spread cells on TGT, 33pN / Spread cells on TGT, 43pN / Spread cells on TGT, 54pN: n = 3; for Spread cells on TGT, 33pN: Ttol 33pN; for Spread cells on TGT, 43pN: Ttol 43pN; for Spread cells on TGT, 54pN: Ttol 54pN
Procedure: Glass coverslips were densely PEGylated to minimize non-specific interactions such as the binding of cell-secreted extracellular matrix proteins. Coverslips cleaned by piranha etching solution (a 3:1 mixture of sulfuric acid and hydrogen peroxide) were incubated in silanization solution (UCT, 1760-24-3; 2% aminosilane and 5% acetic acid in methanol) for 30 min and reacted with a mixture of Polyethylene glycol (PEG) with and without biotin (1:19, 150 mg/ml; Laysan Bio, Biotin-PEG-SVA-5000 and MPEG-SVA-5000) for 4 h. Surfaces were washed thoroughly and dried using nitrogen gas after each step. A 3D-printed dish (PLA) or a silicon gasket (Grace Bio Labs, 103280) was attached to the coverslip to form a dish. Neutravidin (Thermo Fisher scientific, 31000; 0.4 mg/ml) was added to the dish for 10 min and washed out thoroughly. The dish was emptied and a droplet (3 µL) of TGT solution (100 nM unless specified otherwise) was placed on the coverslip for 10 min in a humid condition to locally immobilize TGT. For the lateral drift correction for time-resolved TGT rupture analysis, biotin-coated gold nanoparticles (Luna Nanotech, GNP-BIOT-100-2-04; 100 nm) were sparsely immobilized as fiducial markers. For protein ligand coating, protein (50 ug/ml in PBS) was incubated in glass bottomed imaging dishes for 1 h at RT without additional passivation.
The cells were gently harvested by washing in PBS for 1 min, incubating with 0.05% trypsin for 3 min, and then neutralizing with cell culture medium (FBS 10%). The cells were spun down and resuspended with Leibovitz’s L-15 Medium (Gibco, 21083027) supplemented with 2 g/L glucose, then seeded on the TGT surface at an approximate density of 30 cells/mm^2. For integrin inhibition experiments, cells were incubated with Fab for 5 min before seeding. For cell immobilization experiments, cells were incubated with 1 nM Cholesterol-PEG-Biotin (Nanosoft Polymers, 3084-2000) for 5 min, followed by washes by centrifugation to remove biotin in solution before seeding. The imaging area was humidified and the temperature was maintained at 37 °C. A Nikon Eclipse Ti microscope equipped with Xenon arc lamp, Nikon perfect focus system, custom total internal reflection fluorescence microscopy (TIRFM) module, and custom reflection interference contrast microscopy (RICM) module was driven by Elements software. Dark regions in RICM show where cells have closely adhered to the surface (≪300 nm gap). Nikon 10X objective (CFI60 Plan Fluor) and 60X objective (CFI60 Apochromat TIRF) with DIC filter sets were used. […] Images were recorded using an electron-multiplying charge-coupled device (EMCCD; Andor iXon 888).
Single-cell data were obtained from multiple independent sample preparations for each condition as specified. Percentage of spread cells was obtained from three independent experiments. Statistical analyses were performed using MATLAB software. Two-sided (two sample) t-test was used for two group comparisons. Each group was compared with the control group unless specified otherwise. Representative micrographs are selected from at least two independent experiments.

[2] = target: T1, EO state of integrin α5β1 (Homo sapiens, UniProt P05556+P08648); assay: Intrinsic affinity for EO state of α5β1 stabilized by 12G10 Fab; type: binding; details: 2 µM 12G10 Fab versus basal
T1 construct: endogenous in cells; host or cells: K562 wild type
T1 sequence (P08648 42-894 limits assumed): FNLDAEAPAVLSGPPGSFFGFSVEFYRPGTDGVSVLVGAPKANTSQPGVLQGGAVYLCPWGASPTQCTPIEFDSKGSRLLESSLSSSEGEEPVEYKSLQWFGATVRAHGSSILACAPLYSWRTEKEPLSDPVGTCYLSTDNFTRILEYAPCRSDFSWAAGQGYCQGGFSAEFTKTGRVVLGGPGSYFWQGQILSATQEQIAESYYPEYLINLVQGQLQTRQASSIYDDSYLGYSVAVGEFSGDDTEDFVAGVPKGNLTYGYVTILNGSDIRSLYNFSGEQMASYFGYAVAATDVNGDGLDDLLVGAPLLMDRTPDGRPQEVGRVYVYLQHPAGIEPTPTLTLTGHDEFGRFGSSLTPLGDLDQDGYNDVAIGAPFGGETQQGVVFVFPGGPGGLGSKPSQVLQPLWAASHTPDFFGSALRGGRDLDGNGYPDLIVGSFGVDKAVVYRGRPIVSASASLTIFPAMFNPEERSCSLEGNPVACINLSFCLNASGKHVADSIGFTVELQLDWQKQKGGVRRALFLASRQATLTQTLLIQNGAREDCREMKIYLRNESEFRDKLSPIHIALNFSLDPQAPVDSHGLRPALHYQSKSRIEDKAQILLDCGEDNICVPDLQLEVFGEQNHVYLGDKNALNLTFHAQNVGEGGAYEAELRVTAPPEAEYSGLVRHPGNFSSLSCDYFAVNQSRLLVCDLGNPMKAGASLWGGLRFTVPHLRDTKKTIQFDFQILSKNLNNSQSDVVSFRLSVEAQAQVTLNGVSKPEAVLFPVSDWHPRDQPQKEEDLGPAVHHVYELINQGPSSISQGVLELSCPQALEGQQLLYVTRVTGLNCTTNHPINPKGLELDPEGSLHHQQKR
T1 sequence (P08648 895-1049 partner limits assumed): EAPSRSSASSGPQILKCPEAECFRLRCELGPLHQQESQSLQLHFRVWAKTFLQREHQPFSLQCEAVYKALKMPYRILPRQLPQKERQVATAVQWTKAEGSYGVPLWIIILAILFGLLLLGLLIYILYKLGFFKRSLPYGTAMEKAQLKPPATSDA
T1 sequence (P05556 21-798): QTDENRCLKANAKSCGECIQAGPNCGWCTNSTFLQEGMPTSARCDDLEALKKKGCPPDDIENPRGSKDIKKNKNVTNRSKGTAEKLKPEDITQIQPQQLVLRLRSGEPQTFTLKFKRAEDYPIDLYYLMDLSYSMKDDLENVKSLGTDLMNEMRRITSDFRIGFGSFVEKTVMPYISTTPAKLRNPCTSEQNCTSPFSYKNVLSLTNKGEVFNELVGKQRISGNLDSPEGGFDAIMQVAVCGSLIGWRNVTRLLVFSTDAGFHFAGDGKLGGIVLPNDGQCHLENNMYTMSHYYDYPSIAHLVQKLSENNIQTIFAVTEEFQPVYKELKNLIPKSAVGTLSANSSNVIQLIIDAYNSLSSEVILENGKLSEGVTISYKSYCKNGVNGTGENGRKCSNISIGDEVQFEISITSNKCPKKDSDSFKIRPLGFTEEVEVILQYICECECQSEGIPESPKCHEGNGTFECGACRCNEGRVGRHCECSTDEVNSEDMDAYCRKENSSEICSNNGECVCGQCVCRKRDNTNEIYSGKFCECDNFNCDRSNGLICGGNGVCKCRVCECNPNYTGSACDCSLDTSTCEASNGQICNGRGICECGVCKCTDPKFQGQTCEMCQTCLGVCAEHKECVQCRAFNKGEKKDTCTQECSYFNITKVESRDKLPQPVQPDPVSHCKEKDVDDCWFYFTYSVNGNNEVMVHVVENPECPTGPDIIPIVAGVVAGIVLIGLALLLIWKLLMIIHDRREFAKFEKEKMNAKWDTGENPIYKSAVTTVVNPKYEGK
Excerpt: (§1) provided as a Source Data file.
(§2) (3 pictures or pasted objects on this page, not shown here)

[3] = target: T2, EO state of integrin αVβ1 (Homo sapiens, UniProt P05556+P06756); assay: Intrinsic affinity for EO state of αVβ1 stabilized by 12G10 Fab; type: binding; details: 2 µM 12G10 Fab versus basal
T2 construct: expressed in transfected cells
T2 sequence (P06756 31-889 limits assumed): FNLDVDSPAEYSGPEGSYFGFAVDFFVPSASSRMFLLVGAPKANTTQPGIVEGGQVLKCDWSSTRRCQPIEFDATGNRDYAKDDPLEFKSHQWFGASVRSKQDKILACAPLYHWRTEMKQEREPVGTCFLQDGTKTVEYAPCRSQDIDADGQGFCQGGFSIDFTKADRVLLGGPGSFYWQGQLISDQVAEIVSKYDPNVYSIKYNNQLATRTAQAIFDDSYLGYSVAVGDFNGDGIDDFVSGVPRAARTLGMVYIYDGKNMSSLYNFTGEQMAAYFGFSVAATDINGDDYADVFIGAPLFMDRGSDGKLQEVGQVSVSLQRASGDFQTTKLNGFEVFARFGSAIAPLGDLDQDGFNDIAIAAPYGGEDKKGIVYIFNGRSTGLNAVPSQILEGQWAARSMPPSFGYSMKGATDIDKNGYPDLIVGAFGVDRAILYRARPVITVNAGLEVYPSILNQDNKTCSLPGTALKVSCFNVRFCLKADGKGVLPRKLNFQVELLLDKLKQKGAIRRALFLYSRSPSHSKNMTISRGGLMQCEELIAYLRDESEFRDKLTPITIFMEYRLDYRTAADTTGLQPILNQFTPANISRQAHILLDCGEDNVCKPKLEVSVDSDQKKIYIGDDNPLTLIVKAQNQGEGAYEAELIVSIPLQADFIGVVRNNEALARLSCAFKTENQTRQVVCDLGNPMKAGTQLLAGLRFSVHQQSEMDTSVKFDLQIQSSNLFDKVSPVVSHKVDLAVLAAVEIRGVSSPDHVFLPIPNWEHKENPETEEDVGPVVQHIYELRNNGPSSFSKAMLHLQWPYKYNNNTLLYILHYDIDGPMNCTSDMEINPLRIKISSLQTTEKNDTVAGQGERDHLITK
T2 sequence (P06756 891-1048 partner limits assumed): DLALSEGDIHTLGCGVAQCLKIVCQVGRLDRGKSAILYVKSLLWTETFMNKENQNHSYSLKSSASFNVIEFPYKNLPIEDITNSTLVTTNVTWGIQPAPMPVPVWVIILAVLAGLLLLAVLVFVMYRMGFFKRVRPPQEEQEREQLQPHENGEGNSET
T2 sequence (P05556 21-798): as the sequence (P05556 21-798) above
Excerpt: as §1, §2

[4] = test system: extended-open β1 integrin on BJ-5ta cells; assay: β1 integrin activation: number and density of bound AF647-12G10 Fab on biotin-PEG-cholesterol immobilized cells; type: cell-based, human
Procedure: Cholesterol (CLS) linked to biotin with PEG (~13 nm) immobilizes cells on neutravidin and TGT-coated surfaces. b Cell images and AF647-12G10 Fab (20 nM) signal 1 h after seeding. Scale bar, 10 µm. c–e Cell area and 12G10 Fab signal were measured 30 min after seeding (n = 43, 55, 62, 69, 21, 29; 83, 59, 83, 92, 68, 62 cells from two independent experiments). c Close-contact enclosed area of cells. […] Fluorescent Fab signal was calibrated by analyzing stepwise signal increase due to nonspecific Fab binding to surfaces outside the area imaged with cells (Supplementary Fig. 4a). e Density of 12G10 Fab for each cell. Lines show mean ± SE. Two-sided t-test for p-values. Not significant (ns), p > 0.05.
The cells were gently harvested by washing in PBS for 1 min, incubating with 0.05% trypsin for 3 min, and then neutralizing with cell culture medium (FBS 10%). […] A Nikon Eclipse Ti microscope equipped with Xenon arc lamp, Nikon perfect focus system, custom total internal reflection fluorescence microscopy (TIRFM) module, and custom reflection interference contrast microscopy (RICM) module was driven by Elements software. […] Images were recorded using an electron-multiplying charge-coupled device (EMCCD; Andor iXon 888). […]

[5] = test system: BJ-5ta cells; assay: Percentage of cells producing rupture signals on RGD-12pN with or without soluble cRGDfK; type: cell-based, human; details: RGD-12pN (BHQ2-Cy3, 100 nM); soluble ligand 100 µM; n = 4
Excerpt: Source data are provided as a Source Data file. […]

[6] = test system: BJ-5ta fibroblasts; assay: Spreading of BJ-5ta fibroblasts on linear GRRGD-TGT (peer review file); type: cell-based, human; details: 100 nM, 1 h
Procedure: RGT-TGTs is reproduced using the linear RGD, showing that the high tension threshold for cell spreading is not an artifact of ligand cyclization.
Figure R5 | BJ-5ta fibroblasts on linear RGD ligand surfaces. Cells were seeded for one hour on TGTs conjugated […]
with a linear RGD peptide ([…]; GRRGD-TGT). GRRGD-TGT (100 nM) was immobilized on […]
PEG-passivated and neutravidin functionalized surface. GRRGD-54pN was incubated without neutravidin for control. Images (left) and cell area measured from RICM images (right) are shown. Scale bar, 10 μm. […]

[7] = test system: BJ-5ta cells; assay: Traction force microscopy on ligand-coated polyacrylamide gels; type: cell-based, human
Procedure: Polyacrylamide gels (0.69 and 4.07 kPa shear modulus, 40 μm thickness) were prepared on glass coverslips with embedded 40 nm fluorescent beads (Thermo Scientific, TransFluoSpheres 633/720) and the surfaces were coated with neutravidin as described. […] Cells were seeded on the gels for 1 h. The bead images were taken before and after cell removal with the addition of 0.1% SDS. Bead displacements were determined using particle image velocimetry, and the corresponding contractile energy was estimated with Fourier transform traction cytometry, using ImageJ plugins. The cell area was determined by manually drawing an ROI in the DIC channel. Imaging was performed on Nikon Eclipse Ti2 microscopes equipped with Perfect Focus, CSU-W1 spinning disk, and Hamamatsu Orca-flash 4.0 v3 camera. Illumination was provided by optical fiber (Oz Optics) coupled solid-state lasers: 561 nm (200 mW) for Cy3 and, 655 nm (100 mW) for fluorescent beads from Spectral Applied Research.

[8] = target: integrin α4β1 (EO state); details: extended-open conformation; read-out: affinity for EO state of α4β1; cited from earlier work
[9] = target: integrin α5β1 (EO state); details: extended-open conformation; read-out: affinity for α5β1 in extended-open conformation; cited from earlier work
Excerpt: The response of the cytoskeletal machinery is thus not predetermined by cell type, but is highly regulatable by the type of ligand outside the cell. […] Further, by using 264 the specific panels of antibodies, the authors claim that RGD-based adhesion and spreading is dominated by 265 aVb1 integrin in their RGD-dependent system.

[10] = test system: integrin α5β1 on intact cells; details: ref Li et al., 2017; read-out: affinity to α5β1 on intact cells; cited from earlier work
Excerpt: For inhibition studies we used a different subset of inhibitory IPI and Biogen Fabs with RGD-mimetic heavy chain CDR3 sequences (Supplementary Table 1). […] They show selectivities for αVβ1, αVβ3 and αVβ5 ranging from 160 fold to 2000 fold. […] As we show in Fig.5, even though α5β1 has the highest 316 expression level among all the RGD-binding integrins expressed on BJ-5ta cell, it could not mediate cell 317 adhesion and spreading on the cyclo- ...

N=C(N)NCCC[C@@H]1NC(=O)[C@H](CCCCN)NC(=O)[C@@H](Cc2ccccc2)NC(=O)[C@H](CC(=O)O)NC(=O)CNC1=O [cRGDfK, cyclo[Arg-Gly-Asp-D-Phe-Lys]]
tension threshold for cell spreading ([1]; 1 h, nominal Ttol): > 33 pN
spread cells (fraction), sheet 1c ([1]; TGT 1 nM): 0.00565
spread cells (fraction), sheet 1c ([1]; TGT 3 nM): 0.03764
spread cells (fraction), sheet 1c ([1]; TGT 10 nM): 0.4242
spread cells (fraction), sheet 1c ([1]; TGT 30 nM): 0.8968
spread cells (fraction), sheet 1c ([1]; TGT 100 nM): 0.9524
Spread cells on TGT, 12pN ([1]; 1 h): 0.00901
Spread cells on TGT, 23pN ([1]; 1 h): 0.05
Spread cells on TGT, 33pN ([1]; 1 h): 0.0778
Spread cells on TGT, 43pN ([1]; 1 h): 0.8932
Spread cells on TGT, 54pN ([1]; 1 h): 0.9524
EO affinity over basal affinity, α5β1 [2]: 7000 fold
EO affinity over basal affinity, αVβ1 [3]: 60 fold
force needed for activation of β1 integrin to high affinity state [4]: less than 12 pN
rupture signal with soluble cRGDfK (in words) [5]: No cellproduced a significant rupture signal

GRRGDLATIHGGK [GRRGD-TGT]
spreading on linear RGD-TGT (in words) [6]: no spreading for weak TGTs, with tension tolerance below 40 pN

MUPA-LDVPAAK [α4β1-specific peptidomimetic; 2-methylphenylureaphenylacetyl moiety linked to LDVP motif]
spread cells (fraction), sheet 1c ([1]; TGT 0.01 nM): 0.05399
spread cells (fraction), sheet 1c ([1]; TGT 0.1 nM): 0
spread cells (fraction), sheet 1c ([1]; TGT 0.3 nM): 0.8785
spread cells (fraction), sheet 1c ([1]; TGT 1 nM): 0.9623
spread cells (fraction), sheet 1c ([1]; TGT 10 nM): 0.9712
spread cells (fraction), sheet 1c ([1]; TGT 100 nM): 0.9873
Spread cells on TGT, 12pN ([1]; 1 h): 0.9277
Spread cells on TGT, 23pN ([1]; 1 h): 0.9461
Spread cells on TGT, 33pN ([1]; 1 h): 0.9711
Spread cells on TGT, 43pN ([1]; 1 h): 0.9954
Spread cells on TGT, 54pN ([1]; 1 h): 0.9781
traction force (in words) ([7]; 4 kPa and 0.7 kPa gels, versus RGD): significantly lower
lower traction force than on RGD ([7]; soft gel (0.7 kPa)): ~ 10 fold
Kd [8]: 0.15 nM

cyclic-ACRGDGWCGK (disulfide)
Kd [9]: 2.2 ± 0.5 nM

fibronectin
Kd [10]: 1100 nM
